Test results: ChEMBL document CHEMBL1201862, “PubChem BioAssay data set” (2004)
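A five-concentration, 48-hour dose response in 96-well plates underlies each endpoint, interpolated linearly between surrounding concentrations. GI50 marks 50% less growth.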 Active and inactive are the calls of the source. Cut-off read from the data, not from the text of the source: active = GI50 up to about 1.1 µM and inactive = higher.

Experiments:
Assay in all cases: NCI-60 cell line screen, 48 h
BT-549 = test system: BT-549
CAKI-1 = test system: CAKI-1
DU-145 = test system: DU-145
Hs-578T = test system: Hs-578T
IGROV-1 = test system: IGROV-1
K562 = test system: K562
KM12 = test system: KM12
MDA-MB-231 = test system: MDA-MB-231
MDA-MB-435 = test system: MDA-MB-435
NCI-H23 = test system: NCI-H23
NCI-H522 = test system: NCI-H522
NCI/ADR-RES = test system: NCI/ADR-RES
PC-3 = test system: PC-3
RXF 393 = test system: RXF 393
SF-268 = test system: SF-268
SF-539 = test system: SF-539
T47D = test system: T47D
TK-10 = test system: TK-10
OVCAR-4 = test system: OVCAR-4

Row | SMILES | GI50 (BT-549) | GI50 (CAKI-1) | GI50 (DU-145) | GI50 (Hs-578T) | GI50 (IGROV-1) | GI50 (K562) | GI50 (KM12) | GI50 (MDA-MB-231) | GI50 (MDA-MB-435) | GI50 (NCI-H23) | GI50 (NCI-H522) | GI50 (NCI/ADR-RES) | GI50 (PC-3) | GI50 (RXF 393) | GI50 (SF-268) | GI50 (SF-539) | GI50 (T47D) | GI50 (TK-10) | GI50 (OVCAR-4)
1 | COc1ccc(-c2c(C#N)c(N)n(C3OCC(O)C(O)C3O)c(=S)c2C#N)cc1 (stereo not given) | > 100 µM (inactive) | > 100 µM (inactive) | > 100 µM (inactive) | > 100 µM (inactive) | > 100 µM (inactive) | > 100 µM (inactive) | > 100 µM (inactive) | > 100 µM (inactive) | > 100 µM (inactive) | > 100 µM (inactive) | > 100 µM (inactive) | > 100 µM (inactive) | > 100 µM (inactive) | > 100 µM (inactive) | > 100 µM (inactive) | > 100 µM (inactive) | 95.9 µM (inactive) | > 100 µM (inactive) | –
2 | Nc1nc(=O)c(/N=N/c2ccc([As](=O)(O)O)cc2)c(N)[nH]1 | > 100 µM (inactive) | > 100 µM (inactive) | > 100 µM (inactive) | > 100 µM (inactive) | > 100 µM (inactive) | > 100 µM (inactive) | > 100 µM (inactive) | > 100 µM (inactive) | > 100 µM (inactive) | > 100 µM (inactive) | > 100 µM (inactive) | > 100 µM (inactive) | > 100 µM (inactive) | > 100 µM (inactive) | > 100 µM (inactive) | – | > 100 µM (inactive) | > 100 µM (inactive) | > 100 µM (inactive)
3 | CC(=O)OCC1(CNc2nc(N)ncc2C#N)CC(CCc2ccccc2)C1 (stereo not given) | 87.1 µM (inactive) | 4 µM (inactive) | 32.1 µM (inactive) | 23.9 µM (inactive) | 21.4 µM (inactive) | 2.2 µM (inactive) | > 100 µM (inactive) | 10.4 µM (inactive) | 26.2 µM (inactive) | 2.49 µM (inactive) | 20.2 µM (inactive) | 10.3 µM (inactive) | > 100 µM (inactive) | 27.5 µM (inactive) | > 100 µM (inactive) | > 100 µM (inactive) | 13.3 µM (inactive) | > 10 µM (inactive) | > 100 µM (inactive)
4 | CC1OC(O)CC(N(C)C)C1O.CC1OC(O)CCC1O.CCC1CC(O)c2c(O)c3c(c(O)c2C1O)C(=O)c1cccc(O)c1C3=O (stereo not given) | 0.0448 µM (active) | 0.0156 µM (active) | 0.0333 µM (active) | 0.0507 µM (active) | 0.0284 µM (active) | 0.00597 µM (active) | 0.0209 µM (active) | 0.0275 µM (active) | 0.023 µM (active) | 0.0301 µM (active) | 0.0121 µM (active) | 0.251 µM (active) | 0.0177 µM (active) | 0.0039 µM (active) | 0.0335 µM (active) | 0.0373 µM (active) | 0.0242 µM (active) | 0.0208 µM (active) | 0.0203 µM (active)
5 | COc1ccc(C(SCCO)(c2ccc(OC)cc2)c2ccc(OC)cc2)cc1 | 16.1 µM (inactive) | 20.6 µM (inactive) | 23.4 µM (inactive) | 17.2 µM (inactive) | – | 3.19 µM (inactive) | 15.3 µM (inactive) | 19.8 µM (inactive) | 5.79 µM (inactive) | 17.7 µM (inactive) | 12.4 µM (inactive) | 13.6 µM (inactive) | 13.8 µM (inactive) | 12 µM (inactive) | 17.3 µM (inactive) | 14.4 µM (inactive) | 6.03 µM (inactive) | 21.8 µM (inactive) | 21.6 µM (inactive)
6 | Cc1ccc(C)c(C2NC(=O)c3ccccc3N2)c1 (stereo not given) | 5.25 µM (inactive) | 3.27 µM (inactive) | 2.56 µM (inactive) | 1.09 µM (active) | 1.13 µM (inactive) | 0.274 µM (active) | 2.99 µM (inactive) | 10.3 µM (inactive) | 0.0792 µM (active) | 6.04 µM (inactive) | 0.689 µM (active) | 0.7 µM (active) | 1.06 µM (active) | 1.95 µM (inactive) | 3.27 µM (inactive) | 0.587 µM (active) | 2.72 µM (inactive) | 6.82 µM (inactive) | 6.27 µM (inactive)
7 | COc1ccc2nc3cccc([N+](=O)[O-])c3c(NCCO)c2c1 | 0.00565 µM (active) | 0.0183 µM (active) | 0.011 µM (active) | 0.0169 µM (active) | 0.162 µM (active) | 0.00199 µM (active) | 0.0255 µM (active) | 0.0138 µM (active) | 0.00656 µM (active) | 0.0219 µM (active) | 0.017 µM (active) | 0.0182 µM (active) | 0.0232 µM (active) | 0.0126 µM (active) | 0.0157 µM (active) | 0.0182 µM (active) | 0.141 µM (active) | 0.0336 µM (active) | 0.0386 µM (active)
8 | CC1=C(Br)C(=O)c2c(O)ccc(O)c2C1=O | 0.71 µM (active) | 0.282 µM (active) | 1.52 µM (inactive) | 2.81 µM (inactive) | 1.59 µM (inactive) | 0.133 µM (active) | 1.57 µM (inactive) | 1.26 µM (inactive) | 0.204 µM (active) | 0.938 µM (active) | 0.153 µM (active) | 0.555 µM (active) | 1.41 µM (inactive) | 1.42 µM (inactive) | 1.99 µM (inactive) | 0.646 µM (active) | 0.412 µM (active) | 1.26 µM (inactive) | 0.857 µM (active)
9 | O=C1C(C(O)(C(F)(F)Cl)C(F)(F)Cl)CCCC1C(O)(C(F)(F)Cl)C(F)(F)Cl (stereo not given) | > 10 µM (inactive) | > 10 µM (inactive) | > 10 µM (inactive) | > 10 µM (inactive) | > 10 µM (inactive) | – | > 10 µM (inactive) | > 10 µM (inactive) | > 10 µM (inactive) | > 10 µM (inactive) | > 10 µM (inactive) | > 10 µM (inactive) | > 10 µM (inactive) | > 10 µM (inactive) | > 10 µM (inactive) | > 10 µM (inactive) | > 10 µM (inactive) | > 10 µM (inactive) | > 10 µM (inactive)
10 | CC(=O)Nc1ccccc1S(=O)(=O)c1c(-c2c(C)c(Cl)c(C)c(Cl)c2C)noc1C | 33.9 µM (inactive) | 28.9 µM (inactive) | 88.3 µM (inactive) | 28.6 µM (inactive) | 56.6 µM (inactive) | 33.3 µM (inactive) | > 100 µM (inactive) | 23.7 µM (inactive) | > 100 µM (inactive) | 67.6 µM (inactive) | 49.5 µM (inactive) | 41.2 µM (inactive) | 35.1 µM (inactive) | 28.8 µM (inactive) | 75.2 µM (inactive) | – | 68.1 µM (inactive) | 23.3 µM (inactive) | 14.7 µM (inactive)
11 | CC(Cc1ccc(Cl)cc1Cl)NO (stereo not given) | > 100 µM (inactive) | > 100 µM (inactive) | > 100 µM (inactive) | 80 µM (inactive) | > 100 µM (inactive) | 83.9 µM (inactive) | > 100 µM (inactive) | > 100 µM (inactive) | > 100 µM (inactive) | > 100 µM (inactive) | 66.5 µM (inactive) | > 100 µM (inactive) | > 100 µM (inactive) | > 100 µM (inactive) | > 100 µM (inactive) | – | > 100 µM (inactive) | > 100 µM (inactive) | > 100 µM (inactive)
12 | CCOC(=O)NNC(=O)NCc1cccc(CNC(=O)NNC(=O)OCC)c1 | > 100 µM (inactive) | > 100 µM (inactive) | > 100 µM (inactive) | > 100 µM (inactive) | – | > 100 µM (inactive) | > 100 µM (inactive) | > 100 µM (inactive) | > 100 µM (inactive) | > 100 µM (inactive) | > 100 µM (inactive) | > 100 µM (inactive) | > 100 µM (inactive) | > 100 µM (inactive) | > 100 µM (inactive) | > 100 µM (inactive) | > 100 µM (inactive) | > 100 µM (inactive) | > 100 µM (inactive)
13 | COc1cc(CC(C)NC(C)=O)cc(OC)c1 (stereo not given) | > 100 µM (inactive) | > 100 µM (inactive) | > 100 µM (inactive) | > 100 µM (inactive) | > 100 µM (inactive) | > 100 µM (inactive) | > 100 µM (inactive) | > 100 µM (inactive) | > 100 µM (inactive) | > 100 µM (inactive) | > 100 µM (inactive) | > 100 µM (inactive) | > 100 µM (inactive) | > 100 µM (inactive) | > 100 µM (inactive) | > 100 µM (inactive) | > 100 µM (inactive) | > 100 µM (inactive) | –
14 | CC(=O)N(C(C)=O)n1c(Cc2ccc(C)cc2)nn(C(C)=O)c1=O | > 100 µM (inactive) | > 100 µM (inactive) | > 100 µM (inactive) | > 100 µM (inactive) | > 100 µM (inactive) | > 100 µM (inactive) | > 100 µM (inactive) | > 100 µM (inactive) | > 100 µM (inactive) | > 100 µM (inactive) | > 100 µM (inactive) | > 100 µM (inactive) | > 100 µM (inactive) | – | > 100 µM (inactive) | > 100 µM (inactive) | > 100 µM (inactive) | > 100 µM (inactive) | > 100 µM (inactive)
15 | O[C@]12C=C(c3nccc4c3[nH]c3ccccc34)[C@@H]3CCN(CCCC/C=C\CC1)C[C@@]31CC3/C=C\CCCCN3[C@H]12 (stereo not given in full) | 0.804 µM (active) | 0.541 µM (active) | 0.344 µM (active) | 0.411 µM (active) | 0.112 µM (active) | 0.367 µM (active) | 0.387 µM (active) | 0.484 µM (active) | 0.366 µM (active) | 0.213 µM (active) | 0.263 µM (active) | 0.514 µM (active) | 0.351 µM (active) | – | 0.533 µM (active) | 0.53 µM (active) | 0.34 µM (active) | 0.378 µM (active) | 0.454 µM (active)
